Results on 3 compounds are retold here after patent US20060286625A1, “Rapid enrichment for Listeria” (Kraft Foods Holdings, Inc., priority 2005, published 2006).

The subject of this experiment is environmental isolates. Kind of experiment: Effect of Polymyxin B, Acriflavine HCl and Ceftazidime on environmental isolates. It is filed as cell-based. The settings on record: used together in the Selective medium. The method, then:
Nineteen non-Listeria organisms isolated from environmental sponges from meat and dairy manufacturing facilities were inoculated separately into Tryptic Soy broth (TSB, Difco) and incubated for 24 h at 30° C. The isolates were screened for growth in Selective and Non-Selective media by monitoring absorbance via a spectrophotometer. 900 μl of test media and either 100 μl of culture or Butterfield's Buffer (International BioProducts) were added to a cuvette and incubated at 30° C. Absorbance readings were taken at 660 nm on a spectrophotometer (Shimadzu UV160U) at To, 2 h, 4 h, and 6 h and compared to the corresponding blank cuvette with buffer. Growth was scored by absorbance readings.
The Non-Selective medium consisted of Universal Preenrichment Broth (UPB, Difco) with 0.4% Yeast Extract (YE, Difco). The Selective medium consisted of Universal Preenrichment Broth (UPB, Difco) with 0.4% Yeast Extract (YE, Difco), 0.001% Polymymin B, 0.0005% Acriflavine HCl, and 0.002% Ceftazidime.
Several environmental organisms screened via spectrophotometer were selected to test in mixed culture with Listeria. Environmental isolates were inoculated separately into TSB and incubated for 24 h at 30° C. The growth level was determined by serial dilutions plated on Tryptic Soy agar (TSA, Difco) and incubated at 30° C. for 24 h. Based on the cell counts, the culture was diluted in Butterfield's Buffer and a volume of the diluted culture targeting an initial cell count of 1000 CFU/mL was inoculated into the test media.
30 mL of Non-Selective or Selective medium was added to 10 ml of Butterfield's Buffer to simulate the addition of media to environment sponge. A Non-Selective and Selective medium was inoculated with Listeria culture alone, environmental isolate alone, and Listeria and environment isolate combined. The media were incubated in a water bath at 30° C. Serial dilutions of inoculated media were collected at To and 8 h and plated on Oxford Media Base and a differential media particular to the environmental isolate being tested (see Table 2). […]

Turning to `CC(C)(O/N=C(\C(=O)N[C@@H]1C(=O)N2C(C(=O)[O-])=C(C[n+]3ccccc3)CS[C@H]12)c1csc(N)n1)C(=O)O` [Ceftazidime], the “Effectiveness as selective agents against environmental isolates (in words)” value (shortened to “Effectiveness as selective agents”) is recorded as “effective selective agents against many environmental isolates”.

In the case of Acriflavine HCl, the “Effectiveness as selective agents” value is reported as “effective selective agents against many environmental isolates”.

As to Polymyxin B, the “Effectiveness as selective agents” value is “effective selective agents against many environmental isolates”.
